# According to ChEMBL document CHEMBL1275533, “In vitro antibacterial activity of vertilmicin and its susceptibility to modifications by the recombinant AAC6'-APH2'' enzyme” (2008):
# Activity calls are given as the source filed them. The rule behind the calls is not given here.
# Experiments:
# Providencia rettgeri [1] = assay: Antibacterial activity against gentamicin-resistant Proteus rettgeri clinical isolate after 18 hrs by agar dilution method; type: functional
# Enterococcus faecalis = assay: Antibacterial activity against gentamicin-resistant Enterococcus faecalis clinical isolate assessed as susceptible isolates after 18 hrs by agar dilution method; type: functional, organism-based
# Klebsiella pneumoniae [2] = assay: Antibacterial activity against non-gentamicin-resistant Klebsiella pneumoniae clinical isolate assessed as susceptible isolates after 18 hrs by agar dilution method; type: functional
# [3] = tested on: Staphylococcus epidermidis; assay: Antibacterial activity against gentamicin-resistant Staphylococcus epidermidis clinical isolate after 18 hrs by agar dilution method; type: functional
# Staphylococcus aureus [4] = assay: Antibacterial activity against non-gentamicin-resistant Staphylococcus aureus clinical isolate assessed as susceptible isolates after 18 hrs by agar dilution method; type: functional
# Serratia marcescens [5] = assay: Antibacterial activity against gentamicin-resistant Serratia marcescens clinical isolate assessed as susceptible isolates after 18 hrs by agar dilution method; type: functional
# Pseudomonas sp. [6] = assay: Antibacterial activity against gentamicin-resistant Pseudomonas spp. clinical isolate after 18 hrs by agar dilution method; type: functional
# Providencia rettgeri [7] = assay: Antibacterial activity against non-gentamicin-resistant Proteus rettgeri clinical isolate after 18 hrs by agar dilution method; type: functional
# [8] = tested on: Acinetobacter calcoaceticus; assay: Antibacterial activity against non-gentamicin-resistant Acinetobacter calcoaceticus clinical isolate assessed as susceptible isolates after 18 hrs by agar dilution method; type: functional
# Escherichia coli [9] = assay: Antibacterial activity against gentamicin-resistant Escherichia coli clinical isolate after 18 hrs by agar dilution method; type: functional
# Enterobacter cloacae [10] = assay: Antibacterial activity against non-gentamicin-resistant Enterobacter cloacae clinical isolate after 18 hrs by agar dilution method; type: functional
# [11] = tested on: Acinetobacter calcoaceticus; assay: Antibacterial activity against gentamicin-resistant Acinetobacter calcoaceticus clinical isolate after 18 hrs by agar dilution method; type: functional
# Morganella morganii [12] = assay: Antibacterial activity against non-gentamicin-resistant Morganella morganii clinical isolate after 18 hrs by agar dilution method; type: functional
# [13] = tested on: Haemophilus parainfluenzae; assay: Antibacterial activity against non-gentamicin-resistant Haemophilus parainfluenzae clinical isolate after 18 hrs by agar dilution method; type: functional
# [14] = tested on: Staphylococcus epidermidis; assay: Antibacterial activity against non-gentamicin-resistant Staphylococcus epidermidis clinical isolate after 18 hrs by agar dilution method; type: functional
# Staphylococcus aureus [15] = assay: Antibacterial activity against gentamicin-resistant Staphylococcus aureus clinical isolate after 18 hrs by agar dilution method; type: functional
# Staphylococcus aureus [16] = assay: Antibacterial activity against gentamicin-resistant Staphylococcus aureus clinical isolate assessed as susceptible isolates after 18 hrs by agar dilution method; type: functional
# Pseudomonas sp. [17] = assay: Antibacterial activity against non-gentamicin-resistant Pseudomonas spp. clinical isolate assessed as susceptible isolates after 18 hrs by agar dilution method; type: functional
# Serratia marcescens [18] = assay: Antibacterial activity against non-gentamicin-resistant Serratia marcescens clinical isolate assessed as susceptible isolates after 18 hrs by agar dilution method; type: functional
# Staphylococcus aureus [19] = assay: Antibacterial activity against non-gentamicin-resistant Staphylococcus aureus clinical isolate after 18 hrs by agar dilution method; type: functional
# Escherichia coli [20] = assay: Antibacterial activity against gentamicin-resistant Escherichia coli clinical isolate assessed as susceptible isolates after 18 hrs by agar dilution method; type: functional
# Klebsiella aerogenes = assay: Antibacterial activity against non-gentamicin-resistant Enterobacter aerogenes clinical isolate after 18 hrs by agar dilution method; type: functional
# Pseudomonas sp. [21] = assay: Antibacterial activity against gentamicin-resistant Pseudomonas spp. clinical isolate assessed as susceptible isolates after 18 hrs by agar dilution method; type: functional
# Providencia rettgeri [22] = assay: Antibacterial activity against gentamicin-resistant Proteus rettgeri clinical isolate assessed as susceptible isolates after 18 hrs by agar dilution method; type: functional
# Providencia rettgeri [23] = assay: Antibacterial activity against non-gentamicin-resistant Proteus rettgeri clinical isolate assessed as susceptible isolates after 18 hrs by agar dilution method; type: functional
# Proteus mirabilis [24] = assay: Antibacterial activity against non-gentamicin-resistant Proteus mirabilis clinical isolate assessed as susceptible isolates after 18 hrs by agar dilution method; type: functional
# [25] = tested on: Acinetobacter calcoaceticus; assay: Antibacterial activity against non-gentamicin-resistant Acinetobacter calcoaceticus clinical isolate after 18 hrs by agar dilution method; type: functional
# Pseudomonas aeruginosa = assay: Antibacterial activity against non-gentamicin-resistant Pseudomonas aeruginosa clinical isolate assessed as susceptible isolates after 18 hrs by agar dilution method; type: functional
# Morganella morganii [26] = assay: Antibacterial activity against gentamicin-resistant Morganella morganii clinical isolate after 18 hrs by agar dilution method; type: functional
# Serratia marcescens [27] = assay: Antibacterial activity against non-gentamicin-resistant Serratia marcescens clinical isolate after 18 hrs by agar dilution method; type: functional
# Klebsiella pneumoniae [28] = assay: Antibacterial activity against gentamicin-resistant Klebsiella pneumoniae clinical isolate assessed as susceptible isolates after 18 hrs by agar dilution method; type: functional
# [29] = tested on: Acinetobacter calcoaceticus; assay: Antibacterial activity against gentamicin-resistant Acinetobacter calcoaceticus clinical isolate assessed as susceptible isolates after 18 hrs by agar dilution method; type: functional
# Escherichia coli [30] = assay: Antibacterial activity against non-gentamicin-resistant Escherichia coli clinical isolate after 18 hrs by agar dilution method; type: functional
# Citrobacter freundii = assay: Antibacterial activity against non-gentamicin-resistant Citrobacter freundii clinical isolate after 18 hrs by agar dilution method; type: functional
# [31] = tested on: Staphylococcus epidermidis; assay: Antibacterial activity against non-gentamicin-resistant Staphylococcus epidermidis clinical isolate assessed as susceptible isolates after 18 hrs by agar dilution method; type: functional
# Proteus mirabilis [32] = assay: Antibacterial activity against non-gentamicin-resistant Proteus mirabilis clinical isolate after 18 hrs by agar dilution method; type: functional
# Morganella morganii [33] = assay: Antibacterial activity against non-gentamicin-resistant Morganella morganii clinical isolate assessed as susceptible isolates after 18 hrs by agar dilution method; type: functional
# [34] = tested on: Staphylococcus epidermidis; assay: Antibacterial activity against gentamicin-resistant Staphylococcus epidermidis clinical isolate assessed as susceptible isolates after 18 hrs by agar dilution method; type: functional
# Enterobacter cloacae [35] = assay: Antibacterial activity against gentamicin-resistant Enterobacter cloacae clinical isolate after 18 hrs by agar dilution method; type: functional
# Morganella morganii [36] = assay: Antibacterial activity against gentamicin-resistant Morganella morganii clinical isolate assessed as susceptible isolates after 18 hrs by agar dilution method; type: functional
# [37] = tested on: Haemophilus parainfluenzae; assay: Antibacterial activity against non-gentamicin-resistant Haemophilus parainfluenzae clinical isolate assessed as susceptible isolates after 18 hrs by agar dilution method; type: functional, organism-based
# Serratia marcescens [38] = assay: Antibacterial activity against gentamicin-resistant Serratia marcescens clinical isolate after 18 hrs by agar dilution method; type: functional
# Citrobacter koseri [39] = assay: Antibacterial activity against gentamicin-resistant Citrobacter diversus clinical isolate assessed as susceptible isolates after 18 hrs by agar dilution method; type: functional
# Citrobacter koseri [40] = assay: Antibacterial activity against gentamicin-resistant Citrobacter diversus clinical isolate after 18 hrs by agar dilution method; type: functional
# Klebsiella pneumoniae [41] = assay: Antibacterial activity against gentamicin-resistant Klebsiella pneumoniae clinical isolate after 18 hrs by agar dilution method; type: functional
compound,measurement,setting,value
NCC[C@H](O)C(=O)N[C@@H]1C[C@H](N)[C@@H](O[C@H]2O[C@H](CN)[C@@H](O)[C@H](O)[C@H]2O)[C@H](O)[C@H]1O[C@H]1O[C@H](CO)[C@@H](O)[C@H](N)[C@H]1O [AMIKACIN],MIC50,Providencia rettgeri [1],1 µg/mL
same,MIC90,Providencia rettgeri [1],32 µg/mL
same,Activity,Enterococcus faecalis,inactive
same,Activity,Klebsiella pneumoniae [2],100%
same,MIC50,[3],4 µg/mL
same,MIC90,[3],64 µg/mL
same,Activity,Staphylococcus aureus [4],100%
same,Activity,Serratia marcescens [5],30%
same,MIC50,Pseudomonas sp. [6],> 128 µg/mL
same,MIC90,Pseudomonas sp. [6],> 128 µg/mL
same,MIC50,Providencia rettgeri [7],2 µg/mL
same,MIC90,Providencia rettgeri [7],32 µg/mL
same,Activity,[8],98%
same,MIC50,Escherichia coli [9],1 µg/mL
same,MIC90,Escherichia coli [9],4 µg/mL
same,MIC50,Enterobacter cloacae [10],2 µg/mL
same,MIC90,Enterobacter cloacae [10],4 µg/mL
same,MIC50,[11],16 µg/mL
same,MIC90,[11],> 128 µg/mL
same,MIC50,Morganella morganii [12],1 µg/mL
same,MIC90,Morganella morganii [12],2 µg/mL
same,MIC50,[13],4 µg/mL
same,MIC90,[13],8 µg/mL
same,MIC50,[14],0.5 µg/mL
same,MIC90,[14],2 µg/mL
same,MIC50,Staphylococcus aureus [15],8 µg/mL
same,MIC90,Staphylococcus aureus [15],128 µg/mL
same,Activity,Staphylococcus aureus [16],80.6%
same,Activity,Pseudomonas sp. [17],90.9%
same,Activity,Serratia marcescens [18],96.3%
same,MIC50,Staphylococcus aureus [19],1 µg/mL
same,MIC90,Staphylococcus aureus [19],2 µg/mL
same,Activity,Escherichia coli [20],93%
same,MIC50,Klebsiella aerogenes,1 µg/mL
same,MIC90,Klebsiella aerogenes,2 µg/mL
same,Activity,Pseudomonas sp. [21],7.7%
same,Activity,Providencia rettgeri [22],80%
same,Activity,Providencia rettgeri [23],84.6%
same,Activity,Proteus mirabilis [24],100%
same,MIC50,[25],0.5 µg/mL
same,MIC90,[25],2 µg/mL
same,Activity,Pseudomonas aeruginosa,100%
same,MIC50,Morganella morganii [26],1 µg/mL
same,MIC90,Morganella morganii [26],4 µg/mL
same,MIC50,Serratia marcescens [27],1 µg/mL
same,MIC90,Serratia marcescens [27],2 µg/mL
same,Activity,Klebsiella pneumoniae [28],82.1%
same,Activity,[29],48%
same,MIC50,Escherichia coli [30],1 µg/mL
same,MIC90,Escherichia coli [30],2 µg/mL
same,MIC50,Citrobacter freundii,2 µg/mL
same,MIC90,Citrobacter freundii,4 µg/mL
same,Activity,[31],98.8%
same,MIC50,Proteus mirabilis [32],2 µg/mL
same,MIC90,Proteus mirabilis [32],4 µg/mL
same,Activity,Morganella morganii [33],96%
same,Activity,[34],73.1%
same,MIC50,Enterobacter cloacae [35],16 µg/mL
same,MIC90,Enterobacter cloacae [35],32 µg/mL
same,Activity,Morganella morganii [36],83.3%
same,Activity,[37],inactive
same,MIC50,Serratia marcescens [38],> 128 µg/mL
same,MIC90,Serratia marcescens [38],> 128 µg/mL
same,Activity,Citrobacter koseri [39],35.7%
same,MIC50,Citrobacter koseri [40],32 µg/mL
same,MIC90,Citrobacter koseri [40],64 µg/mL
same,MIC50,Klebsiella pneumoniae [41],1 µg/mL
same,MIC90,Klebsiella pneumoniae [41],> 128 µg/mL
GENTAMICIN,MIC50,Providencia rettgeri [1],64 µg/mL
same,MIC90,Providencia rettgeri [1],128 µg/mL
same,Activity,Enterococcus faecalis,inactive
same,Activity,Klebsiella pneumoniae [2],100%
same,MIC50,[3],16 µg/mL
same,MIC90,[3],> 128 µg/mL
same,Activity,Staphylococcus aureus [4],85.7%
same,Activity,Serratia marcescens [5],0%
same,MIC50,Pseudomonas sp. [6],128 µg/mL
same,MIC90,Pseudomonas sp. [6],> 128 µg/mL
same,MIC50,Providencia rettgeri [7],4 µg/mL
same,MIC90,Providencia rettgeri [7],8 µg/mL
same,Activity,[8],98%
same,MIC50,Escherichia coli [9],64 µg/mL
same,MIC90,Escherichia coli [9],> 128 µg/mL
same,MIC50,Enterobacter cloacae [10],0.25 µg/mL
same,MIC90,Enterobacter cloacae [10],0.5 µg/mL
same,MIC50,[11],> 128 µg/mL
same,MIC90,[11],> 128 µg/mL
same,MIC90,Morganella morganii [12],8 µg/mL
same,MIC50,[13],2 µg/mL
same,MIC90,[13],4 µg/mL
same,MIC50,[14],0.06 µg/mL
same,MIC90,[14],4 µg/mL
same,MIC50,Staphylococcus aureus [15],32 µg/mL
same,MIC90,Staphylococcus aureus [15],128 µg/mL
same,Activity,Staphylococcus aureus [16],0%
same,Activity,Pseudomonas sp. [17],81.8%
same,Activity,Serratia marcescens [18],100%
same,MIC50,Staphylococcus aureus [19],0.125 µg/mL
same,MIC90,Staphylococcus aureus [19],8 µg/mL
same,Activity,Escherichia coli [20],0%
same,MIC50,Klebsiella aerogenes,0.25 µg/mL
same,MIC90,Klebsiella aerogenes,0.5 µg/mL
same,Activity,Pseudomonas sp. [21],0%
same,Activity,Providencia rettgeri [22],0%
same,Activity,Providencia rettgeri [23],84.6%
same,Activity,Proteus mirabilis [24],96.8%
same,MIC50,[25],0.25 µg/mL
same,MIC90,[25],2 µg/mL
same,Activity,Pseudomonas aeruginosa,65.6%
same,MIC50,Morganella morganii [26],128 µg/mL
same,MIC90,Morganella morganii [26],> 128 µg/mL
same,MIC50,Serratia marcescens [27],0.25 µg/mL
same,MIC90,Serratia marcescens [27],0.5 µg/mL
same,Activity,Klebsiella pneumoniae [28],0%
same,Activity,[29],0%
same,MIC,Escherichia coli [30],0.25 µg/mL
same,MIC90,Escherichia coli [30],1 µg/mL
same,MIC50,Citrobacter freundii,0.25 µg/mL
same,MIC90,Citrobacter freundii,1 µg/mL
same,Activity,[31],92.5%
same,MIC50,Proteus mirabilis [32],0.5 µg/mL
same,MIC90,Proteus mirabilis [32],1 µg/mL
same,Activity,Morganella morganii [33],76%
same,Activity,[34],0%
same,MIC50,Enterobacter cloacae [35],> 128 µg/mL
same,MIC90,Enterobacter cloacae [35],> 128 µg/mL
same,Activity,Morganella morganii [36],0%
same,Activity,[37],inactive
same,MIC50,Serratia marcescens [38],> 128 µg/mL
same,MIC90,Serratia marcescens [38],> 128 µg/mL
same,Activity,Citrobacter koseri [39],0%
same,MIC50,Citrobacter koseri [40],> 128 µg/mL
same,MIC90,Citrobacter koseri [40],> 128 µg/mL
same,MIC50,Klebsiella pneumoniae [41],128 µg/mL
same,MIC90,Klebsiella pneumoniae [41],> 128 µg/mL
